Measured values as given in the supplement of paper PMC13380429.

Columns and labels:
HepG2 [1] = assay: drug sensitivity score (DSS) for viability; higher = more toxic; extreme values may be limits of the assay; conditions: 72 h
Caco-2 [2] = assay: as above; conditions: 72 h
Calu-3 [3] = assay: as above; conditions: 72 h
Vero E6 [4] = assay: as above; conditions: 72 h
U2OS [5] = assay: as above; conditions: 72 h
[6] = tested on: A549-ACE2 infected with SARS-CoV-2; assay: morphology score (similarity to uninfected cells); higher = more like uninfected cells; conditions: 24 h
A549-ACE2 [7] = assay: drug-induced phospholipidosis relative to tamoxifen; higher = more phospholipidosis
[8] = tested on: A549-ACE2 infected with SARS-CoV-2; assay: SARS-CoV-2 infection rate relative to DMSO; higher = more infection; conditions: 24 h
Caco-2 [9] = assay: relative viability EC50 (midpoint between 100% and the lowest measured viability); higher = less toxic; conditions: 72 h
Calu-3 [10] = assay: as above; conditions: 72 h
Vero E6 [11] = assay: as above; conditions: 72 h
U2OS [12] = assay: as above; conditions: 72 h
A549-ACE2 [13] = assay: phospholipidosis EC50; higher = less potent phospholipidosis inducer
[14] = tested on: A549-ACE2 infected with SARS-CoV-2; assay: cell count relative to DMSO; higher = less toxic; conditions: 24 h
HepG2 [15] = assay: cell viability relative to DMSO; higher = less toxic; conditions: 72 h
Caco-2 [16] = assay: as above; conditions: 72 h
Calu-3 [17] = assay: as above; conditions: 72 h
Vero E6 [18] = assay: as above; conditions: 72 h
U2OS [19] = assay: as above; conditions: 72 h

c1ccc(-c2nn3c(c2-c2ccnc4cc(OCCN5CCOCC5)ccc24)CCC3)nc1
Conditions	drug sensitivity score	relative viability EC50 [µM]
Caco-2 [2]	0	–
Caco-2 [9]	–	> 10
Calu-3 [3]	0	–
Calu-3 [10]	–	> 10
HepG2 [1]	1.6	–
U2OS [5]	1.5	–
U2OS [12]	–	> 10
Vero E6 [4]	0	–
Vero E6 [11]	–	> 10

Conditions	SARS-CoV-2 infection rate [%]	cell count [%]	cell viability [%]	morphology score	phospholipidosis EC50 [µM]
A549-ACE2 [13], 24 h	–	–	–	–	15.2
A549-ACE2 [13], 72 h	–	–	–	–	12.7
Caco-2 [16], 1 nM	–	–	94.1	–	–
Caco-2 [16], 10 nM	–	–	106	–	–
Caco-2 [16], 100 nM	–	–	95.8	–	–
Caco-2 [16], 1000 nM	–	–	100	–	–
Caco-2 [16], 10000 nM	–	–	94.6	–	–
Calu-3 [17], 1 nM	–	–	102	–	–
Calu-3 [17], 10 nM	–	–	86.3	–	–
Calu-3 [17], 100 nM	–	–	104	–	–
Calu-3 [17], 1000 nM	–	–	96	–	–
Calu-3 [17], 10000 nM	–	–	101	–	–
HepG2 [15], 1 nM	–	–	103	–	–
HepG2 [15], 10 nM	–	–	100	–	–
HepG2 [15], 100 nM	–	–	96.6	–	–
HepG2 [15], 1000 nM	–	–	95.7	–	–
HepG2 [15], 10000 nM	–	–	74.7	–	–
U2OS [19], 1 nM	–	–	95.4	–	–
U2OS [19], 10 nM	–	–	105	–	–
U2OS [19], 100 nM	–	–	91.6	–	–
U2OS [19], 1000 nM	–	–	90.4	–	–
U2OS [19], 10000 nM	–	–	76.5	–	–
Vero E6 [18], 1 nM	–	–	102	–	–
Vero E6 [18], 10 nM	–	–	99.8	–	–
Vero E6 [18], 100 nM	–	–	111	–	–
Vero E6 [18], 1000 nM	–	–	108	–	–
Vero E6 [18], 10000 nM	–	–	105	–	–
[6], 0.3 µM	–	–	–	0.43	–
[6], 3 µM	–	–	–	0.25	–
[6], 10 µM	–	–	–	0.09	–
[6], 30 µM	–	–	–	-0.11	–
[8], 0.3 µM	82	–	–	–	–
[8], 3 µM	97	–	–	–	–
[8], 10 µM	108	–	–	–	–
[8], 30 µM	106	–	–	–	–
[14], 0.3 µM	–	108	–	–	–
[14], 3 µM	–	104	–	–	–
[14], 10 µM	–	96	–	–	–
[14], 30 µM	–	95	–	–	–

drug-induced phospholipidosis [%], A549-ACE2 [7]
Conditions	0.3 µM	0.833333 µM	3.33333 µM	6.66667 µM	10 µM	30 µM
24 h	7.41	15.4	31.7	44.4	57.5	78.6
48 h	5.26	4.41	16.2	19.5	30.1	52.8
72 h	2.76	-1.59	7.52	15.3	29.5	58.6

COc1cc(/C=C/C(=O)CC(=O)/C=C/c2ccc(O)c(OC)c2)ccc1O [curcumin]
Conditions	drug sensitivity score	relative viability EC50 [µM]
Caco-2 [2]	4.6	–
Caco-2 [9]	–	1.79
Calu-3 [3]	0.3	–
Calu-3 [10]	–	> 10
HepG2 [1]	2.2	–
U2OS [5]	4	–
U2OS [12]	–	3.08
Vero E6 [4]	0.6	–
Vero E6 [11]	–	> 10

Conditions	SARS-CoV-2 infection rate, [8] [%]	cell count, [14] [%]	cell viability, Caco-2 [16] [%]	cell viability, Calu-3 [17] [%]	cell viability, HepG2 [15] [%]	cell viability, U2OS [19] [%]	cell viability, Vero E6 [18] [%]	morphology score, [6]
1 nM	–	–	97.6	99.9	104	99.8	99.9	–
10 nM	–	–	102	103	102	107	96.3	–
100 nM	–	–	97.9	102	98.2	95.5	95.2	–
0.3 µM	102	89	–	–	–	–	–	-0.12
1000 nM	–	–	89.7	108	101	99.2	98.2	–
3 µM	93	107	–	–	–	–	–	0.05
10 µM	99	99	–	–	–	–	–	0.27
10000 nM	–	–	45.6	80.6	55.7	30	82.9	–
30 µM	14	64	–	–	–	–	–	0.48

drug-induced phospholipidosis [%], A549-ACE2 [7]
Conditions	0.3 µM	0.833333 µM	3.33333 µM	6.66667 µM	10 µM	30 µM
24 h	1.25	2.99	3.97	17.5	28.2	105
48 h	3.07	1.47	2.2	8.78	11	–
72 h	3.47	0.682	1.8	7.67	8.59	–
